How the values were obtained:
[1] = Phase 1b TRIMM-2 study: pharmacokinetics (serum concentrations); assay type: in vivo, human; details: in the presence of daratumumab
Experimental: Blood and serum or plasma samples were collected for assessments of pharmacokinetics and immunogenicity (e.g., antibodies to daratumumab, rHuPH20, or talquetamab). Selection of the dose regimen (dose level and frequency) for dose expansion was determined based on the pharmacokinetic and pharmacodynamic information obtained during dose escalation. A sample for the pharmacokinetic and immunogenicity analysis was collected at scheduled time and any time a suspected IRR or CRS event (in case of a CRS event, samples were collected at onset, 24 hours and 72 hours) was observed during the study.
Each serum sample was evenly divided into 3 aliquots (1 for pharmacokinetics and immunogenicity of daratumumab, 1 for pharmacokinetics and immunogenicity of talquetamab, and 1 backup). […] For the pharmacokinetics analysis, serum samples were analyzed to determine concentrations of daratumumab and talquetamab using validated, specific, and sensitive assay methods. Pharmacokinetic parameters include, but are not limited to, area under the curve (AUC)(0-t), AUCtau, Cmax, and Tmax would be calculated if sufficient data were available for estimation. […] For the rHuPH20 immunogenicity assessments, plasma samples were screened for antibodies binding to rHuPH20 and were assessed in confirmatory and titer assays as necessary.

T cells = assay: Phase 1b TRIMM-2 study: biomarker / pharmacodynamic assessments (T cells, cytokines); assay type: in vivo, human
Text: BM-localized MM cells were identified and analysed for cell surface marker expression levels by staining 1.0×10^6 cells/mL with HuMax-003 (CD38) FITC (this antibody binds to an epitope distinct from the epitope bound by daratumumab, Janssen Pharmaceuticals), CD138 PE, CD56 PC7, CD45 Krome Orange (all Beckman Coulter), CD269 (BCMA) APC (Biolegend), CD274 (PD-L1) BV421 and CD19 APC-H7 (both Becton Dickinson). BM or PB immune cell subsets were identified and analysed for cell surface marker expression levels by staining 1.0×10^6 cells/mL with CD45 Krome Orange, CD56 PC7 (both Beckman Coulter), CD14 APC-H7, CD19 APC-H7, CD3 V450, CD4 APC-H7 or PE, CD8 FITC, CD45-RA APC. CD127 PE.Cy7, CD62L PE, CD274 […] BV421, CD16 APC, HLA-DR APC-H7 (all Becton Dickinson) and CD25 PE (Dako) or with CD4 BUV395 (BD Biosciences), CD8 BUV737 (BD
Biosciences), PD-1 BV421 (BD Biosciences), TIM-3 BV650 (BD Biosciences), CD3 BV711 (BD Biosciences), CD45RO BV786 (BD Biosciences). CD38 Humab-003-FITC (Janssen). CD45RA PerCP-Cy5.5 (BD Biosciences). HLA-DR PE (BD Biosciences), LAG-3 PE-eF610 (ThermoFisher), CD25 PE-Cy7 (BD Biosciences), CCR7 AF647 (BD Biosciences), CD127 APC-eF780 (ThermoFisher). All BM samples were analysed within 24 hours from the time the sample was collected.
Flow cytometry was performed using a 7-laser LSRFORTESSA (Becton Dickinson). Fluorescent labeled beads (CS&T beads, Becton Dickinson) were used daily to monitor the performance of the flow cytometer and verify optical path and stream flow. […] Compensation beads were used to determine spectral overlap, and compensation was automatically calculated using Diva software. Flow cytometry data were analyzed using FACS Diva software.
Cytokines [interferon-gamma (IFN-γ), interleukin (IL)-2, IL-6, IL-8, IL-10, and tumor necrosis factor-alpha (TNF-α)] in the cell culture supernatants were analyzed using V-Plex proinflammatory Panel 1 Human Kit (Meso Scale Diagnostics), according to the manufacturer’s protocol. […]

[2] = system: relapsed or refractory multiple myeloma; assay: Phase 1b TRIMM-2 study: best response by IMWG criteria, investigator assessment
Experimental: A phase 1b, open-label, multicenter, multi-cohort study of talquetamab in combination with subcutaneous (SC) dosing regimens of daratumumab administered to adult subjects with multiple myeloma was carried out. Two treatment combinations also included pomalidomide (and concomitant dexamethasone for at least the initial cycles). In the pomalidomide-containing treatment combinations, dexamethasone administration was required through the first 3 full immunomodulatory agent (IMiD)containing cycles to enhance IMiD-driven antimyeloma effects and serve as pretreatment medication for daratumumab and talquetamab. An overall aim of the study was to evaluate the safety of daratumumab in combination with talquetamab with or without pomalidomide (and concomitant dexamethasone at least in the initial cycles), and to evaluate preliminary antitumor activity. Safety was monitored by a Study Evaluation Team (SET).
The treatments were administered in 28-day cycles. Daratumumab was administered to all subjects by SC injection at a dose of 1800 mg as follows: weekly in Cycles 1-2, every 2 weeks (Q2W) in Cycles 3-6, and every 4 weeks thereafter. Note that a recombinant human hyaluronidase PH20 (rHuPH20) was used to decrease the injection volume required, facilitating the SC administration of daratumumab.
Daratumumab SC (Dara) was administered in combination with different dosage levels of talquetamab (Tal), including Dara 1800 mg + Tal 60 µg/kg SC weekly, Dara 1800 mg + Tal 400 µg/kg SC weekly. Dara 1800 mg + Tal 400 µg/kg SC biweekly starting Cycle 3 Day 1 (Tal 400 µg/kg SC weekly in Cycles 1-2), and Dara 1800 mg + Tal 800 µg/kg SC biweekly. Some subjects in the Dara 1800 mg + Tal 400 µg/kg SC weekly cohort switched to Tal 800 µg/kg biweekly SC dosing after Cycle 3 Day 1. Except for the 60 µg/kg talquetamab SC weekly cohort in which step-up dosing began on Cycle 1 Day 9, step-up doses for talquetamab began on Cycle 1 Day 2. When daratumumab and talquetamab were administered on the same day, daratumumab was administered first. Step-up Dose 1 of talquetamab was administered at least 20 hours after SC daratumumab. Subsequent step-up dose(s), if applicable, and first treatment dose of talquetamab were administered approximately 3 hours after SC daratumumab. Subsequent treatment doses of talquetamab was administered approximately 1 hour after SC daratumumab (when both study drugs are administered on the same day).
Disease evaluations would be performed by a central laboratory (additional samples may be collected for analysis by the local laboratory) until disease progression. […] Subjects that meet all other IMWG criteria for CR, and whose positive IFE is confirmed to be daratumumab interference, are considered complete responders. For subjects with light chain multiple myeloma, both serum and urine IFE and serum FLC assay were performed every 4 weeks. Additional serum samples may be utilized to monitor for potential daratumumab interference with the IFE and response adjudicated per IMWG-based response criteria. Quantitative immunoglobulin (QIg, e.g., IgG, IgA, IgM, IgE, and IgD), M-protein by electrophoresis (SPEP), FLC and IFE measurements in serum and urine and serum β-microglobulin were analyzed by the central laboratory. Disease progression based on one of the laboratory tests alone must be confirmed by at least 1 repeat investigation performed 1 to 3 weeks later. Disease evaluations would continue beyond relapse from CR until disease progression was confirmed. Serum and urine IFE and serum FLC assays would be performed at screening and thereafter when a CR or sCR is suspected (when serum or 24-hour urine M-protein electrophoresis [by SPEP or UPEP] are 0 or non-quantifiable). Development of hypercalcemia (corrected serum calcium >11 mg/dL) may indicate disease progression or relapse if it is not attributable to any other cause.

[3] = Tal 400 µg/kg (SC3 and SC6) + 800 µg/kg (SC7 and SC15) with Dara 1800 mg, 56 response evaluable subjects
[4] = Tal Total (all Tal cohorts with Dara, with or without Pom), n=108 evaluable

talquetamab
Pharmacokinetic profile of talquetamab [1]: consistent with the profile of observed in the phase 1 talquetamab monotherapy | Frequency of CD38+ T cells (T cells; FIG. 4, following talquetamab dosing in the presence of daratumumab 1800 mg): increase | CD38+ CD8+ T cells (T cells; after the initial doses of talquetamab despite concurrent daratumumab dosing): induction | CR or better (sCR + CR) ([2]; Overall Total, n=186 evaluable): 46 (24.7%) | Clinical benefit (Overall response + MR) ([2]; Overall Total, n=186 evaluable): 146 (78.5%) | Complete response (CR) ([2]; Overall Total, n=186 evaluable): 28 (15.1%) | Minimal response (MR) ([2]; Overall Total, n=186 evaluable): 0 | Not evaluable (NE) ([2]; Overall Total, n=186 evaluable): 1 (1.2%) | Overall response (sCR+CR+VGPR+PR) ([2]; Overall Total, n=186 evaluable): 146 (78.5%) | Partial response (PR) ([2]; Overall Total, n=186 evaluable): 22 (11.8%) | Progressive disease (PD) ([2]; Overall Total, n=186 evaluable): 11 (5.9%) | Stringent complete response (sCR) ([2]; Overall Total, n=186 evaluable): 18 (9.7%) | VGPR or better (sCR + CR + VGPR) ([2]; Overall Total, n=186 evaluable): 124 (66.7%) | Very good partial response (VGPR) ([2]; Overall Total, n=186 evaluable): 78 (41.9%) | Very good partial response (VGPR), Unconfirmed ([2]; Overall Total, n=186 evaluable): 11 | CR or better (sCR + CR) [2, 3]: 16 (28.6%) | Clinical benefit (Overall response + MR) [2, 3]: 45 (80.4%) | Complete response (CR) [2, 3]: 9 (16.1%) | Complete response (CR), Unconfirmed [2, 3]: 3 | Minimal response (MR) [2, 3]: 0 | Not evaluable (NE) [2, 3]: 0 | Overall response (sCR+CR+VGPR+PR) [2, 3]: 45 (80.4%) | Partial response (PR) [2, 3]: 9 (16.1%) | Partial response (PR), Unconfirmed [2, 3]: 4 | Progressive disease (PD) [2, 3]: 3 (5.4%) | Stringent complete response (sCR) [2, 3]: 7 (12.5%) | Stringent complete response (sCR), Unconfirmed [2, 3]: 0 | VGPR or better (sCR + CR + VGPR) [2, 3]: 36 (64.3%) | Very good partial response (VGPR) [2, 3]: 20 (35.7%) | Very good partial response (VGPR), Unconfirmed [2, 3]: 5 | CR or better (sCR + CR) [2, 4]: 28 (25.9%) | Clinical benefit (Overall response + MR) [2, 4]: 89 (82.4%) | Complete response (CR) [2, 4]: 14 (13.0%) | Minimal response (MR) [2, 4]: 0 | Not evaluable (NE) [2, 4]: 0 | Overall response (sCR+CR+VGPR+PR) [2, 4]: 89 (82.4%) | Partial response (PR) [2, 4]: 18 (16.7%) | Progressive disease (PD) [2, 4]: 4 (3.7%) | Stringent complete response (sCR) [2, 4]: 14 (13.0%) | VGPR or better (sCR + CR + VGPR) [2, 4]: 71 (65.7%) | Very good partial response (VGPR) [2, 4]: 43 (39.8%) | Very good partial response (VGPR), Unconfirmed [2, 4]: 13

daratumumab: anti-CD38 monoclonal antibody approved for MM treatment; HC SEQ ID NO: 13, LC SEQ ID NO: 14; given SC with rHuPH20 [reference compound]
Proportion of CD38+/CD8+ T cells (T cells; after initial daratumumab dosing on C1D1): declined

Source: patent US20230295292A1, “METHODS OF TREATING CANCERS AND ENHANCING EFFICACY OF GPRC5DXCD3 BISPECIFIC ANTIBODIES” (Janssen Biotech, Inc., priority 2021, published 2023)
